# Reference: patent US9096591B2, “Tetracyclic compounds” (Medivation Technologies, Inc., priority 2007, dated 2015)
# Columns and labels:
# mice = experiment: recognition test of new location of a known object (spatial memory); type: in vivo
# rat brain mitochondria [1] = experiment: Ca2+-induced swelling of mitochondria (MPT pore opening); type: biochemical, Wistar rats; settings: rat brain mitochondria
# Protocol: Rat liver and brain mitochondria were prepared from male Wistar rats. The rats were euthanized in a CO2 chamber followed by decapitation the procedure being in compliance with the Guidelines for Animal Experiments at IPAC RAS. […]
# Brain mitochondria were isolated from the pooled forebrains of two rats. The modified method of Sims was used to isolate and purify brain mitochondria in a Percoll gradient. The brain was homogenized in “buffer A” (225 mM mannitol, 75 mM sucrose, 5 mM HEPES, 1 mM EGTA, pH 7.4 [KOH]) and centrifuged for 10 min at 1300 g. The supernatant was centrifuged for 10 min at 10000 g, and then the pellet was suspended in 15% Percoll and layered on a discontinuous gradient consisting of 40 and 23% Percoll, respectively, which was then centrifuged for 10 min at 30000 g without using brakes. The mitochondria were collected from the interface of the lower two layers and after resuspension in “buffer A”, the suspension was centrifuged at 16600 g for 10 min, then the pellet was resuspended in “buffer A”, BSA (10 mg/mL) was added to bind free fatty acids; and the suspensions was centrifuged again at 6300 g for 10 min. Following centrifugation the pelleted mitochondria were re-suspended in isolation medium without EGTA to achieve a protein concentration of 15-20 mg/ml.
# Mitochondrial swelling caused by influx of solutes through open PT pores results in an increase in light transmission (i.e., a reduced turbidity). This turbidity change offers a convenient and frequently used assay of the MPT by measurement of absorbance in mitochondrial suspensions. In the present study, the MPT induced by Ca^2+ and inorganic phosphate (Ca/Pi) was monitored by absorbance changes at 540 nm in a cuvette in a Beckman DU 640 spectrophotometer in 1 ml of buffer A plus 0.8 μM rotenone, 5 mM succinate, 1 mM KH2PO4 and 0.5 mg or 0.2 mg protein of isolated liver or brain mitochondria, accordingly. Reaction was started by the addition of triggering agent (Ca^2+). Pre-treatment and reaction were performed at 30° C. Swelling rate was quantified as ΔA540/min/mg, calculated, in all cases, from a tangent to the steepest portion of the plot of A540 versus time.
# Ca^2+-induced Swelling of mitochondria was used as the primary screening test for compounds influence on MPT pore opening. […] But the inhibition of swelling may be connected not only with direct inhibition of MPT pore opening but also with the impairment of respiratory function of mitochondria and with the compounds action on calcium transport into mitochondria. For the primary estimation of these possibilities the mitochondrial membrane potential and calcium retention capacity of mitochondria were measured. […] New synthesized compounds (except C-14 and C-43) alone induced an increase of brain mitochondria suspension turbidity. The mechanism of such effect needs additional investigations.
# [2] = test system: synaptosomes of cortex of rat brain; experiment: Glutamate-induced 45Ca2+ uptake into synaptosomes; type: biochemical, Wistar rats; settings: for % Ca of control (control-100%), glutamate-induced 45Ca2+ uptake into synaptosomes: rat cortex synaptosomes
# Summary of the method: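 Cortical synaptosomes (P2 fraction) from 9-10-day-old Wistar rats, ~1.5-2 mg/ml protein in HEPES-buffered saline with glucose, pH 7.4, stimulated 5 min with 200 μM glutamate at 37° C. 45Ca2+ uptake measured by filtration and scintillation counting; specific uptake with compound expressed as percentage of glutamate-induced uptake, each corrected for unstimulated uptake.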
# rat brain mitochondria [3] = experiment: Mitochondrial membrane potential (safranine test); type: biochemical, Wistar rats; settings: suggested from membrane potential and calcium retention data (Table 15)
# Protocol: The same experimental conditions were used for the assessment of alterations of the mitochondrial membrane potential, except that safranine was included in incubation medium at a final concentration of 10 mkM and succinate was added before the compounds of the invention. This concentration of safranine was determined before hand as the optimal compromise between signal/baseline ratio and interference of safranine itself with swelling induced by Ca/Pi (safranine tended to enhance Ca/Pi-induced swelling at concentrations above 20 mkM). Changes in the status of the mPT pore were assessed spectrophotometrically at 554 and 524 nm in a cuvette in a Beckman DU 640 spectrophotometer. A554-524 represents the characteristics of mitochondrial potential and A554-characteristics of mitochondrial swelling.
smiles,measurement,setting,value
CN1CCc2c(c3cc(Cl)ccc3n2CCc2noc(-c3ccccc3)n2)C1 [Compound C4-6],Influence on memory in the test recognition new localization of known object,mice; Dose of Compound 0.05 mg/kg,−
same,Influence on memory in the test recognition new localization of known object,mice; Dose of Compound 0.1 mg/kg,−
same,Influence on memory in the test recognition new localization of known object,mice; Dose of Compound 0.5 mg/kg,+
same,Influence on memory in the test recognition new localization of known object,mice; Dose of Compound 1.0 mg/kg,+
same,activity on memory: times weaker than dimebon,mice; comparison of effective doses,approximately 5 times
same,effect of the dose on exploration time / memory (in words),"mice; mice, dose 0.05 mg/kg",not effective
same,effect of the dose on exploration time / memory (in words),"mice; mice, dose 0.1 mg/kg",not effective
same,"time exploring the object in a new location, % of the total time","mice; mice, dose 0.5 mg/kg",61.0±4.8%
same,"time exploring the object in the known position, % of the total time","mice; mice, dose 0.5 mg/kg",39.0±4.8%
same,"time exploring the object in a new location, % of the total time","mice; mice, dose 1 mg/kg",56.3±7.7%
same,"time exploring the object in the known position, % of the total time","mice; mice, dose 1 mg/kg",43.7±7.7%
same,overall effect on memory (in words),"mice; mice, doses 0.05-1 mg/kg",stimulated memory
same,A540 increase in mitochondrial suspension after addition of 100 μM of compound,rat brain mitochondria [1]; 100 μM compound,28 rel.units
same,IC50,"rat brain mitochondria [1]; read-out: IC50, Ca2+-induced (25-50 μM) swelling of brain mitochondria, Ca2+ 25-50 μM",6 ± 1.2 µM
same,concentration at which glutamate-induced 45Ca2+ uptake into synaptosomes was increased,[2],50 to 100 µM
same,concentration at which glutamate-induced 45Ca2+ uptake into synaptosomes was inhibited,[2],5 to 10 µM
same,"glutamate-induced 45Ca2+ uptake into synaptosomes of rat cortex, % Ca of control (control-100%)",[2]; C 100 μM,152.2%
same,"% Ca of control (control-100%), glutamate-induced 45Ca2+ uptake into synaptosomes",[2]; compound 0.1 μM,103.6 ± 11.4%
same,"% Ca of control (control-100%), glutamate-induced 45Ca2+ uptake into synaptosomes",[2]; compound 0.5 μM,96.9 ± 11.9%
same,"% Ca of control (control-100%), glutamate-induced 45Ca2+ uptake into synaptosomes",[2]; compound 1 μM,105.5 ± 5.2%
same,"% Ca of control (control-100%), glutamate-induced 45Ca2+ uptake into synaptosomes",[2]; compound 5 μM,86.5 ± 6.1%
same,"% Ca of control (control-100%), glutamate-induced 45Ca2+ uptake into synaptosomes",[2]; compound 10 μM,88.6 ± 2.8%
same,"% Ca of control (control-100%), glutamate-induced 45Ca2+ uptake into synaptosomes",[2]; compound 50 μM,122.1 ± 8.5%
same,"% Ca of control (control-100%), glutamate-induced 45Ca2+ uptake into synaptosomes",[2]; compound 100 μM,152.0 ± 6.7%
same,impairment of mitochondrial respiratory functions accompanying inhibition of MPT,rat brain mitochondria [3],impairment of mitochondrial respiratory functions
